Laboratory results reported in PubChem BioAssay (NCI).
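How tested: cells in 96-well plates exposed to compound for 48 hours at five concentrations. Abbreviation: GI50, concentration required for 50% inhibition of growth. Definition used: TGI = concentration required for complete inhibition of growth.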

Columns and labels:
Experiment in all cases: NCI anticancer screen, dose series, 48 h; in the data active = GI50 below about 0.43 µM; inactive = the rest
MOLT-4 leukemia = tested on: MOLT-4 leukemia
SR leukemia = tested on: SR leukemia
ACHN renal = tested on: ACHN renal
HL-60(TB) leukemia = tested on: HL-60(TB) leukemia
SW-620 colon = tested on: SW-620 colon
SF-539 CNS = tested on: SF-539 CNS
KM12 colon = tested on: KM12 colon
MDA-MB-231 breast = tested on: MDA-MB-231 breast
EKVX NSCLC = tested on: EKVX NSCLC
UACC-257 melanoma = tested on: UACC-257 melanoma
SK-MEL-5 melanoma = tested on: SK-MEL-5 melanoma
RXF 393 renal = tested on: RXF 393 renal
HOP-92 NSCLC = tested on: HOP-92 NSCLC
NCI-H522 lung = tested on: NCI-H522 lung
NCI-H23 lung = tested on: NCI-H23 lung
TK-10 renal = tested on: TK-10 renal
SNB-19 CNS = tested on: SNB-19 CNS
NCI-H226 lung = tested on: NCI-H226 lung
OVCAR-8 ovarian = tested on: OVCAR-8 ovarian
SN12C renal = tested on: SN12C renal
OVCAR-3 ovarian = tested on: OVCAR-3 ovarian
SK-OV-3 ovarian = tested on: SK-OV-3 ovarian
MDA-MB-468 breast = tested on: MDA-MB-468 breast
CCRF-CEM leukemia = tested on: CCRF-CEM leukemia
A549 NSCLC = tested on: A549 NSCLC
HS 578T breast = tested on: HS 578T breast
UACC-62 melanoma = tested on: UACC-62 melanoma
HT29 colon = tested on: HT29 colon
COLO 205 colon = tested on: COLO 205 colon
IGROV1 ovarian = tested on: IGROV1 ovarian
HCT-15 colon = tested on: HCT-15 colon
CAKI-1 renal = tested on: CAKI-1 renal
RPMI-8226 leukemia = tested on: RPMI-8226 leukemia
MALME-3M melanoma = tested on: MALME-3M melanoma
PC-3 prostate = tested on: PC-3 prostate
MDA-MB-435 = tested on: MDA-MB-435
T-47D breast = tested on: T-47D breast
SNB-75 CNS = tested on: SNB-75 CNS
UO-31 renal = tested on: UO-31 renal
HCC-2998 colon = tested on: HCC-2998 colon
DU-145 prostate = tested on: DU-145 prostate
OVCAR-4 ovarian = tested on: OVCAR-4 ovarian
OVCAR-5 ovarian = tested on: OVCAR-5 ovarian
SF-295 CNS = tested on: SF-295 CNS
786-0 renal = tested on: 786-0 renal
BT-549 breast = tested on: BT-549 breast
LOX IMVI melanoma = tested on: LOX IMVI melanoma
MCF7 breast = tested on: MCF7 breast
U251 CNS = tested on: U251 CNS
A498 renal = tested on: A498 renal
K-562 leukemia = tested on: K-562 leukemia
SK-MEL-28 melanoma = tested on: SK-MEL-28 melanoma
M14 melanoma = tested on: M14 melanoma
SF-268 CNS = tested on: SF-268 CNS
HOP-62 NSCLC = tested on: HOP-62 NSCLC
SK-MEL-2 melanoma = tested on: SK-MEL-2 melanoma
HCT-116 colon = tested on: HCT-116 colon
NCI-H460 lung = tested on: NCI-H460 lung

CC1=C(C(=O)Nc2ccccc2)C(c2cccc3ccccc23)n2c(nc3ccccc32)N1 (stereo unspecified)
96.1 µM: TGI (NCI-H226 lung)
inactive: GI50 (MOLT-4 leukemia) > 100 µM | GI50 (SR leukemia) > 100 µM | GI50 (ACHN renal) 19.3 µM | GI50 (HL-60(TB) leukemia) > 100 µM | GI50 (SW-620 colon) > 100 µM | GI50 (SF-539 CNS) 15.2 µM | GI50 (KM12 colon) > 100 µM | GI50 (MDA-MB-231 breast) 10.1 µM | GI50 (EKVX NSCLC) 73.7 µM | GI50 (UACC-257 melanoma) > 100 µM | GI50 (SK-MEL-5 melanoma) > 100 µM | GI50 (RXF 393 renal) 15.4 µM | GI50 (HOP-92 NSCLC) 16.7 µM | GI50 (NCI-H522 lung) > 100 µM | GI50 (NCI-H23 lung) > 100 µM | GI50 (TK-10 renal) > 100 µM | GI50 (SNB-19 CNS) 9.08 µM | GI50 (NCI-H226 lung) 16.4 µM | GI50 (OVCAR-8 ovarian) 14.5 µM | GI50 (SN12C renal) 9.91 µM | GI50 (OVCAR-3 ovarian) > 100 µM | GI50 (SK-OV-3 ovarian) > 100 µM | GI50 (MDA-MB-468 breast) 26.6 µM | GI50 (CCRF-CEM leukemia) > 100 µM | GI50 (A549 NSCLC) 4.44 µM | GI50 (HS 578T breast) 2.9 µM | GI50 (UACC-62 melanoma) > 100 µM | GI50 (HT29 colon) > 100 µM | GI50 (COLO 205 colon) > 100 µM | GI50 (IGROV1 ovarian) 89.2 µM | GI50 (HCT-15 colon) > 100 µM | GI50 (CAKI-1 renal) > 100 µM | GI50 (RPMI-8226 leukemia) > 100 µM | GI50 (MALME-3M melanoma) 16.5 µM | GI50 (PC-3 prostate) 23.1 µM | GI50 (MDA-MB-435) > 100 µM | GI50 (T-47D breast) > 100 µM | GI50 (SNB-75 CNS) 1.76 µM | GI50 (UO-31 renal) > 100 µM | GI50 (HCC-2998 colon) > 100 µM | GI50 (DU-145 prostate) 47.3 µM | GI50 (OVCAR-4 ovarian) 5.93 µM | GI50 (OVCAR-5 ovarian) > 100 µM | GI50 (SF-295 CNS) 60.4 µM | GI50 (786-0 renal) 25.1 µM | GI50 (BT-549 breast) 13.1 µM | GI50 (LOX IMVI melanoma) 11 µM | GI50 (MCF7 breast) > 100 µM | GI50 (U251 CNS) 11.1 µM | GI50 (A498 renal) > 100 µM | GI50 (K-562 leukemia) > 100 µM | GI50 (SK-MEL-28 melanoma) > 100 µM | GI50 (M14 melanoma) > 100 µM | GI50 (SF-268 CNS) 30.4 µM | GI50 (HOP-62 NSCLC) 20.2 µM | GI50 (SK-MEL-2 melanoma) 83.3 µM | GI50 (HCT-116 colon) 6.62 µM | GI50 (NCI-H460 lung) > 100 µM
5.95 µM: TGI (SNB-75 CNS)
93.1 µM: TGI (MDA-MB-231 breast)
56.9 µM: TGI (HOP-62 NSCLC)
82 µM: TGI (MALME-3M melanoma)
20.1 µM: TGI (HS 578T breast)
76.9 µM: TGI (SNB-19 CNS)
> 100 µM: TGI (MOLT-4 leukemia) | TGI (SR leukemia) | TGI (ACHN renal) | TGI (HL-60(TB) leukemia) | TGI (SW-620 colon) | TGI (SF-539 CNS) | TGI (KM12 colon) | TGI (EKVX NSCLC) | TGI (UACC-257 melanoma) | TGI (SK-MEL-5 melanoma) | TGI (HOP-92 NSCLC) | TGI (NCI-H522 lung) | TGI (NCI-H23 lung) | TGI (TK-10 renal) | TGI (OVCAR-8 ovarian) | TGI (SN12C renal) | TGI (OVCAR-3 ovarian) | TGI (SK-OV-3 ovarian) | TGI (MDA-MB-468 breast) | TGI (CCRF-CEM leukemia) | TGI (A549 NSCLC) | TGI (UACC-62 melanoma) | TGI (HT29 colon) | TGI (COLO 205 colon) | TGI (IGROV1 ovarian) | TGI (HCT-15 colon) | TGI (CAKI-1 renal) | TGI (RPMI-8226 leukemia) | TGI (PC-3 prostate) | TGI (MDA-MB-435) | TGI (T-47D breast) | TGI (UO-31 renal) | TGI (HCC-2998 colon) | TGI (DU-145 prostate) | TGI (OVCAR-4 ovarian) | TGI (OVCAR-5 ovarian) | TGI (SF-295 CNS) | TGI (786-0 renal) | TGI (BT-549 breast) | TGI (LOX IMVI melanoma) | TGI (MCF7 breast) | TGI (U251 CNS) | TGI (A498 renal) | TGI (K-562 leukemia) | TGI (SK-MEL-28 melanoma) | TGI (M14 melanoma) | TGI (SF-268 CNS) | TGI (SK-MEL-2 melanoma) | TGI (HCT-116 colon) | TGI (NCI-H460 lung)
95.1 µM: TGI (RXF 393 renal)
